LD50 and ED50 data for 7 compounds are collected here from ChEMBL document CHEMBL1138724, “Synthesis and anticonvulsant activity of new 2-substituted-5- [2-(2-fluorophenoxy)phenyl]-1,3,4-oxadiazoles and 1,2,4-triazoles” (Bioorg Med Chem Lett, 2004).

One may read the LD50 as the dose at which mortality reaches 50%. Lower therefore signals a more toxic substance. In general, ED50 refers to the midpoint of the dose-response relation.

A short description of data set [1]: Lethal dose in mice. Format: toxicity. Particulars: mouse, in vivo.
The species named for data set [2] is Mus musculus. Description: Effective dose required to protect mice against convulsion induced electroshock was determined by MES test. The format is functional.
The test system of data set [3] is Mus musculus. Description: Effective dose required to protect mice against convulsion induced electroshock was determined by MES test in the presence of 10 mg/kg flumazenil.
In data set [4] the test system is Mus musculus. Briefly: Effective dose required to protect mice against convulsion induced by a lethal dose of PTZ (100 mg/kg) was determined. The format is functional.
For data set [5], the system named is Mus musculus. Description: Effective dose required to protect mice against convulsion induced by a lethal dose of PTZ (100 mg/kg) was determined in the presence of 10 mg/kg flumazenil. Format: functional.

Where only a bound is given, the exact number is not on record here.

`CSc1nnc(-c2ccccc2Oc2ccccc2F)o1`: the LD50 in data set [1] is > 300 mg/kg. Moreover, the ED50 in the data set filed under Mus musculus [2] is > 100 mg/kg.
Turning to `CN1C(=O)CN=C(c2ccccc2)c2cc(Cl)ccc21` [DIAZEPAM], the results for the ED50 in the data set on Mus musculus [3] and in the data set on Mus musculus [4] were 1.57 mg/kg and 1.87 mg/kg, respectively.
As for `Nc1nnc(-c2ccccc2Oc2ccccc2F)o1`, the LD50 in data set [1] was > 300 mg/kg. For the same compound, the ED50 in the data set with Mus musculus [5] was 39.2 mg/kg; in the data set filed under Mus musculus [2] it was 9.57 mg/kg.
With `Fc1ccccc1Oc1ccccc1-c1nnc(S)o1`, the LD50 in data set [1] is > 300 mg/kg. Moreover, the ED50 in the data set filed under Mus musculus [2] was 43.1 mg/kg; with Mus musculus [4], > 100 mg/kg.
As for `Oc1nnc(-c2ccccc2Oc2ccccc2F)o1`, the LD50 in data set [1] is > 300 mg/kg. Further, in the data set listed under Mus musculus [2], the ED50 was > 100 mg/kg.
In the case of `Fc1ccccc1Oc1ccccc1-c1n[nH]c(S)n1`, the LD50 in data set [1] is > 300 mg/kg. The ED50 in the data set listed under Mus musculus [2] was 92 mg/kg; with Mus musculus [4], > 100 mg/kg.
`CCOc1n[nH]c(-c2ccccc2Oc2ccccc2F)n1`: the LD50 in data set [1] was > 300 mg/kg. The compound also displayed an ED50 with Mus musculus [4] of 84.8 mg/kg.
